Experimental findings from US20240287048A1, “SUBSTITUTED ACYL SULFONAMIDES FOR TREATING CANCER” (The Broad Institute, Inc., priority 2020, published 2024) are described below.

The target of one data set is T1, KAT6A (Homo sapiens, UniProt Q92794).
T1 construct: Recombinant human His-tagged Kat6a protein (amino acids 194-810); His; made in house; host or cells: Baculovirus-infected Sf9 insect cells
The data set can be described thus: Kat6a activity assay (TR-FRET, acetylation of biotinylated histone H4 peptide). The settings on record: recombinant human His-tagged Kat6a (amino acids 194-810), 60 mins at 22° C., read-out: KAT6A-DPF/HAT domain IC50 [mol/l] (arithmetic mean). It is filed as biochemical. The essentials:
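His-tagged human Kat6a (aa 194-810, Sf9-expressed) with compound (0.01-20 μM) for 60 min at 22° C., pH 8 Tris buffer, 220 nM biotinylated H4 peptide (aa 1-24) and 600 nM acetyl-CoA. Acetyl-K8 detected by Eu-antibody/SA-XL665 TR-FRET (665/620 nm ratio); IC50 from 4-parameter fit.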
A general note: In TR-FRET formats the signal depends on donor and acceptor labels being close together.

In data set [1] the test system is ESR1 transcription in MVLN cells. The data set can be described thus: Repression of ESR1 transcription, MVLN luciferase reporter assay. The format is cell-based. The settings on record: Homo sapiens, luciferase signal after 24 h, read-out: MVLN reporter assay, IC50[M] (arithmetic mean). In outline:
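MVLN cells stably carry an ER-responsive vitellogenin A2 element driving luciferase. After 24 h of compound treatment, luciferase was read in lysate as the measure of ERα transcription. Alamar Blue fluorescence (530/590 nm, 2 h) was read first to control for cell loss; samples were run in duplicate.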
A general note: Reporter assays use an easily measured gene product as a stand-in for the process of interest.

For the next data set, the system named is LCLC-97TM1 cells. The data set can be described thus: Proliferation assay in LCLC-97TM1 cells. As to conditions: Homo sapiens, 144 h, Alamar Blue, read-out: LCLC97TM1 proliferation assay, EC50[M] (arithmetic mean). It is filed as cell-based. The essentials:
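LCLC-97TM1 large-cell lung carcinoma cells were seeded at 6000 per well in RPMI 1640 with 2.5% FBS and exposed to compound for 144 h at 37 °C, 5% CO2, in triplicate. Viability was read by Alamar Blue fluorescence at 590 nm after 2 h.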
Background: Alamar Blue is a resazurin reagent that responds to reducing activity.

Another data set deals with MDA-MB-436 cells. Briefly: Proliferation assay in MDA-MB-436 cells (negative control cell line). It is filed as cell-based. The settings on record: Homo sapiens, 144 h, Alamar Blue, read-out: MDA-MB-436 proliferation assay, EC50[M] (arithmetic mean). In outline:
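KAT6A-amplified ZR-75-1 cells (RPMI 1640, 2.5% FBS) and KAT6A-low MDA-MB-436 cells (DMEM/Ham's F12, 2.5% FBS) were seeded at 3000 cells/well. Treatment lasted 144 h at 37 °C, 5% CO2, in triplicate. Viability was read by Alamar Blue (2 h) fluorescence at […].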

Data set [2] deals with Salmonella tester strain TA1535. Briefly: Bacterial reverse gene mutation test Ames MPF Penta I, TA1535. It is filed as cell-based. The text has this:
(§1) The employed commercial assay Ames MPF Penta I comprises the histidine auxotrophic Salmonella tester strains TA98, TA100, TA1535, TA1537 and two tryptophan auxotrophic tester strains E. coli wp2 (E. coli wp2 [pKM101] and E. coli wp2 uvrA, combined exposure). These strains meet the requirements of the OECD guideline 471 for testing chemicals.
(§2) Bacterial strains were exposed to various concentrations of the test compounds in a histidine (His) or tryptophane (Trp) deficient medium. As recommended by ICH S2(R1) guideline, the test was conducted in two assay conditions, with and without addition of microsomal enzymes (S9 mix), taking the potential formation of DNA reactive metabolites via xenobiotic biotransformation into account.
(§3) The potential of the test compound to induce gene mutations is assessed by comparing the control with the test compounds treated bacterial cultures.

The subject of data set [3] is E. coli wp2 (E. coli wp2 [pKM101] and E. coli wp2 uvrA, combined exposure). Briefly: Bacterial reverse gene mutation test Ames MPF Penta I, E. coli wp2. The format is cell-based.
Description: as §1, §2, §3

T1 sequence (Q92794 194-810): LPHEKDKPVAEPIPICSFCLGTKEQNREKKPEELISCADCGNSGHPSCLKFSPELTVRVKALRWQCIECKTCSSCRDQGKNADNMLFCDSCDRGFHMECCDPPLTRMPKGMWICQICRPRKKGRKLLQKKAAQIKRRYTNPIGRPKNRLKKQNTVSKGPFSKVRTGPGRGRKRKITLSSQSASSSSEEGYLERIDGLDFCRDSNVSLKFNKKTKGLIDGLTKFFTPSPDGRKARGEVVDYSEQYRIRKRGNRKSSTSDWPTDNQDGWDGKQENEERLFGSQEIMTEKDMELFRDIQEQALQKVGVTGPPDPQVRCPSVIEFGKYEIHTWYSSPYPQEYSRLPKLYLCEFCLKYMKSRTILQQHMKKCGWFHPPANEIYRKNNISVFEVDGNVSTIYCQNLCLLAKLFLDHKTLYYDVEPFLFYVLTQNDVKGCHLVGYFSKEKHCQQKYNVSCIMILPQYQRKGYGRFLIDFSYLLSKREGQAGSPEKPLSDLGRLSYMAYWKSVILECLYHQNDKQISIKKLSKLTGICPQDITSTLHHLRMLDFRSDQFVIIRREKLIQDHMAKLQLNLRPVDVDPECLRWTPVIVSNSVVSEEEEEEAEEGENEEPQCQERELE

Take `O=C(NS(=O)(=O)c1ccccc1-c1ccccc1)c1cc2ccc(C3CC3)cc2o1` [Example 16, N-([1,1′-biphenyl]-2-sulfonyl)-6-cyclopropyl-1-benzofuran-2-carboxamide]: the IC50 worked out at 62.4 nM on KAT6A and 1.02e-06 M in data set [1]. Also, the EC50 is 1.14e-05 M in the data set with LCLC-97TM1 cells and greater than 2e-05 M in the data set on MDA-MB-436 cells. The “Result of the bacterial reverse gene mutation test Ames MPF Penta I, TA1535” value in data set [2] (with addition of S9 mix) and in data set [2] (without addition of S9 mix) was “negative” each time. In addition, the “Result of the bacterial reverse gene mutation test Ames MPF Penta I, E. coli wp2” value in data set [3] (with addition of S9 mix) and in data set [3] (without addition of S9 mix) was “negative” throughout.
`CCOc1ccccc1S(=O)(=O)NC(=O)c1cc2ccc(C(C)C)cc2o1` [Example 55, N-(2-Ethoxybenzenesulfonyl)-6-(propan-2-yl)-1-benzofuran-2-carboxamide]: the IC50 was determined as 596 nM at KAT6A and 1.34e-06 M in data set [1]. In addition, the EC50 in the data set on LCLC-97TM1 cells and in the data set on MDA-MB-436 cells was greater than 2e-05 M in each case. Moreover, the “Result of the bacterial reverse gene mutation test Ames MPF Penta I, TA1535” value in data set [2] (with addition of S9 mix) and in data set [2] (without addition of S9 mix) was “negative” throughout. The “Result of the bacterial reverse gene mutation test Ames MPF Penta I, E. coli wp2” value in data set [3] (with addition of S9 mix) and in data set [3] (without addition of S9 mix) was “negative” each time.
